Patent US7332501B2, “Indol-3-yl-carbonyl-spiro-piperidine derivatives as V1a receptor antagonists” (Hoffmann-La Roche Inc., priority 2005, dated 2008)
Structures can show the parent of a compound that is named as a salt.

Molecular target: T1, human V1a receptor (Homo sapiens, UniProt P37288)
T1 construct: expressed in transfected cells; host or cells: HEK293 cells, transiently transfected; cell membranes
Assay: human V1a receptor binding (3H-Vasopressin SPA, HEK293 membranes)
Settings: displacement of 4 nM 3H-Vasopressin, membranes of HEK293 cells transiently transfected with human V1a receptor; Ki from IC50 by Cheng-Prussoff
Experimental: The human V1a receptor was cloned by RT-PCR from total human liver RNA. The coding sequence was subcloned in an expression vector after sequencing to confirm the identity of the amplified sequence. […] Cell membranes were prepared from HEK293 cells transiently transfected with the expression vector and grown in 20 liter fermenters with the following protocol.
50 g cells are resuspended in 30 ml freshly prepared ice cold Lysis buffer (50 mM HEPES, 1 mM EDTA, 10 mM MgCl2 adjusted to pH=7.4+complete cocktail of protease inhibitor (Roche Diagnostics)). The cells are homogenized with Polytron for 1 min and sonicated on ice for 2×2 minutes at 80% intensity (Vibracell sonicator). The preparation is centrifuged 20 min at 500 g at 4° C., the pellet is discarded and the supernatant centrifuged 1 hour at 43,000 g at 4° C. (19,000 rpm). The pellet is resuspended in 12.5 ml Lysis buffer+12.5 ml Sucrose 20% and homogenized using a Polytron for 1-2 min. The protein concentration is determined by the Bradford method and aliquots are stored at −80° C. until use. For binding studies 60 mg Yttrium silicate SPA beads (Amersham) are mixed with an aliquot of membrane in binding buffer (50 mM Tris, 120 mM NaCl, 5 mM KCl, 2 mM CaCl2, 10 mM MgCl2) for 15 minutes with mixing. 50 ul of bead/membrane mixture is then added to each well of a 96 well plate, followed by 50 ul of 4 nM 3H-Vasopressin (American Radiolabeled Chemicals). For total binding measurement 100 ul of binding buffer are added to the respective wells, for non-specific binding 100 ul of […] cold vasopressin and for compound testing 100 ul of a serial dilution of each compound in 2% DMSO. The plate is incubated 1 h at room temperature, centrifuged 1 min at 1000 g and counted on a Packard Top-Count. Non-specific binding counts are subtracted from each well and data is normalized to the maximum specific binding set at 100%. To calculate an IC 50 the curve is fitted using a non-linear regression model (XLfit), and the Ki is calculated using the Cheng-Prussoff equation.

T1 sequence (P37288 whole entry): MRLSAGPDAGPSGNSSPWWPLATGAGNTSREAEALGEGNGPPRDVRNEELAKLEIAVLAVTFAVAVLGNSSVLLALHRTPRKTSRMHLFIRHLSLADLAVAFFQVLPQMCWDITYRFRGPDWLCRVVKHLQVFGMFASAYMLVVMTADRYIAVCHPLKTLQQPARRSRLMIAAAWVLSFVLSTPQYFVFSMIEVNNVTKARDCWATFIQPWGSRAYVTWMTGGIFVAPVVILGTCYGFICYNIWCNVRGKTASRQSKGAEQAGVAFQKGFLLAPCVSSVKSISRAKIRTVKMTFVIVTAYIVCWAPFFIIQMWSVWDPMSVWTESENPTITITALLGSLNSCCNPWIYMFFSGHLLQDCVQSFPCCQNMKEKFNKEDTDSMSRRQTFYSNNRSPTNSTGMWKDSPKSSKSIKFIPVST

| SMILES | Ki |
| --- | --- |
| O=C(c1cn(Cc2ccccn2)c2cc(Cl)ccc12)N1CCC2(CC1)OCc1ccccc12 [Example 231, 1′-{[6-Chloro-1-(pyridin-2-ylmethyl)-1H-indol-3-yl]carbonyl}-3H-spiro[2-benzofuran-1,4′-piperidine]] | 1.6 nM |
| O=C(Cn1cc(C(=O)N2CCC3(CC2)OCc2ccccc23)c2ccc(Cl)cc21)c1ccccc1F [Example 224, 2-[6-Chloro-3-(1′H,3H-spiro[2-benzofuran-1,4′-piperidin]-1′-ylcarbonyl)-1H-indol-1-yl]-1-(2-fluorophenyl)ethanone] | 1.3 nM |
| O=C(Cn1cc(C(=O)N2CCC3(CC2)OC(=O)c2cc(F)ccc23)c2ccc(Cl)cc21)c1ccccn1 [Example 169, 1′-{[6-Chloro-1-(2-oxo-2-pyridin-2-ylethyl)-1H-indol-3-yl]carbonyl}-5-fluoro-3H-spiro[2-benzofuran-1,4′-piperidin]-3-one] | 1.5 nM |
| CN(C)CCNC(=O)c1[nH]c2cc(Cl)ccc2c1C(=O)N1CCC2(CC1)OC(=O)c1cc(F)ccc12 [Example 26, 6-chloro-N-[2-(dimethylamino)ethyl]-3-[(5-fluoro-3-oxo-1′H,3H-spiro[2-benzofuran-1,4′-piperidin]-1′-yl)carbonyl]-1H-indole-2-carboxamide] | 39.4 nM |
| CN1CCN(C(=O)Cn2cc(C(=O)N3CCC4(CC3)OCc3ccccc34)c3ccc(Cl)cc32)CC1 [Example 212, 1′-({6-Chloro-1-[2-(4-methylpiperazin-1-yl)-2-oxoethyl]-1H-indol-3-yl}carbonyl)-3H-spiro[2-benzofuran-1,4′-piperidine]] | 1.2 nM |
| Cc1noc(C)c1Cn1cc(C(=O)N2CCC3(CC2)OC(=O)c2cc(F)ccc23)c2ccc(Cl)cc21 [Example 186, 1′-({6-Chloro-1-[(3,5-dimethylisoxazol-4-yl)methyl]-1H-indol-3-yl}carbonyl)-5-fluoro-3H-spiro[2-benzofuran-1,4′-piperidin]-3-one] | 2.9 nM |
| O=C1OC2(CCN(C(=O)c3c[nH]c4cc(Cl)ccc34)CC2)c2ccc(F)cc21 [Example 19, 1′-[(6-chloro-1H-indol-3-yl)carbonyl]-5-fluoro-3H-spiro[2-benzofuran-1,4′-piperidin]-3-one] | 6.8 nM |
| Cc1cc(Cn2cc(C(=O)N3CCC4(CC3)OC(=O)c3cc(F)ccc34)c3ccc(Cl)cc32)nn1C [Example 185, 1′-({6-Chloro-1-[(1,5-dimethyl-1H-pyrazol-3-yl)methyl]-1H-indol-3-yl}carbonyl)-5-fluoro-3H-spiro[2-benzofuran-1,4′-piperidin]-3-one] | 2.2 nM |
| CN(C)CCNC(=O)Cn1cc(C(=O)N2CCC3(CC2)OC(=O)c2ccccc23)c2ccc(Cl)cc21 [Example 119, 2-{6-Chloro-3-[(3-oxo-1′H,3H-spiro[2-benzofuran-1,4′-piperidin]-1′-yl)carbonyl]-1H-indol-1-yl}-N-[2-(dimethylamino)ethyl]acetamide] | 24 nM |
| O=C(c1cn(CC2CO2)c2cc(Cl)ccc12)N1CCC2(CC1)OCc1ccccc12 (stereo not drawn) [Example 258, 1′-{[6-Chloro-1-(oxiran-2-ylmethyl)-1H-indol-3-yl]carbonyl}-3H-spiro[2-benzofuran-1,4′-piperidine]] | 3.7 nM |
| O=C(Cn1cc(C(=O)N2CCC3(CC2)OC(=O)c2ccccc23)c2ccc(Cl)cc21)c1ccc(F)c(F)c1 [Example 154, 1′-({6-Chloro-1-[2-(3,4-difluorophenyl)-2-oxoethyl]-1H-indol-3-yl}carbonyl)-3H-spiro[2-benzofuran-1,4′-piperidin]-3-one] | 1.3 nM |
| Cc1c(C(=O)N2CCC3(CC2)OC(=O)c2cc4c(cc23)OCO4)c2ccccc2n1Cc1ccccc1 [Example 34, 1′-[(1-benzyl-2-methyl-1H-indol-3-yl)carbonyl]-7H-spiro[furo[3,4-f][1,3]benzodioxole-5,4′-piperidin]-7-one] | 2.1 nM |
| O=C1OC2(CCN(C(=O)c3cn(CC4CNCCO4)c4cc(Cl)ccc34)CC2)c2ccccc21 (stereo not drawn) [Example 198, 1′-{[6-Chloro-1-(morpholin-2-ylmethyl)-1H-indol-3-yl]carbonyl}-3H-spiro[2-benzofuran-1,4′-piperidin]-3-one hydrochloride] | 3.3 nM |
| O=C1OC2(CCN(C(=O)c3c[nH]c4cc(Cl)ccc34)CC2)c2ccccc21 [Example 16, 1′-[(6-chloro-1H-indol-3-yl)carbonyl]-3H-spiro[2-benzofuran-1,4′-piperidin]-3-one] | 4.4 nM |
| CN(C)CCNC(=O)Cn1cc(C(=O)N2CCC3(CC2)OCc2ccccc23)c2ccc(Cl)cc21 [Example 249, 2-[6-Chloro-3-(1′H,3H-spiro[2-benzofuran-1,4′-piperidin]-1′-ylcarbonyl)-1H-indol-1-yl]-N-[2-(dimethylamino)ethyl]acetamide] | 2.4 nM |
| O=C(c1c[nH]c2cc(Cl)c(F)cc12)N1CCC2(CC1)COc1ccccc12 [Example 80, 1′-[(6-chloro-5-fluoro-1H-indol-3-yl)carbonyl]spiro[1-benzofuran-3,4′-piperidine]] | 7.4 nM |

Now from value to molecule:

| Ki | SMILES |
| --- | --- |
| 1.1 nM | CC(C)(C)OC(=O)Cn1cc(C(=O)N2CCC3(CC2)OC(=O)c2ccccc23)c2ccc(Cl)cc21 [Example 109, tert-Butyl {6-chloro-3-[(3-oxo-1′H,3H-spiro[2-benzofuran-1,4′-piperidin]-1′-yl)carbonyl]-1H-indol-1-yl}acetate] |
| 2.5 nM | COc1ccccc1Cn1c(C)c(C(=O)N2CCC3(CC2)OCc2ccccc23)c2ccccc21 [Example 54, 1′-{[1-(2-methoxybenzyl)-2-methyl-1H-indol-3-yl]carbonyl}-3H-spiro[2-benzofuran-1,4′-piperidine]] |
| 2.9 nM | Cc1c(C(=O)N2CCC3(CC2)OCc2ccc(Cl)cc23)c2ccccc2n1Cc1ccccc1 [Example 40, 1′-[(1-benzyl-2-methyl-1H-indol-3-yl)carbonyl]-6-chloro-3H-spiro[2-benzofuran-1,4′-piperidine]] |
| 7.7 nM | NCCn1cc(C(=O)N2CCC3(CC2)OCc2ccccc23)c2ccc(Cl)cc21 [Example 253, 2-[6-Chloro-3-(1′H,3H-spiro[2-benzofuran-1,4′-piperidin]-1′-ylcarbonyl)-1H-indol-1-yl]ethanamine] |
| 1 nM | O=C(Cn1cc(C(=O)N2CCC3(CC2)OCc2ccccc23)c2ccc(Cl)cc21)N1CCOCC1 [Example 205, 1′-{[6-Chloro-1-(2-morpholin-4-yl-2-oxoethyl)-1H-indol-3-yl]carbonyl}-3H-spiro[2-benzofuran-1,4′-piperidine]] |
| 5 nM | O=C1OC2(CCN(C(=O)c3cn(-c4cccc(F)c4)c4cc(Cl)ccc34)CC2)c2ccccc21 [Example 155, 1′-{[6-Chloro-1-(3-fluorophenyl)-1H-indol-3-yl]carbonyl}-3H-spiro[2-benzofuran-1,4′-piperidin]-3-one] |
| 6.9 nM | O=C1OC2(CCN(C(=O)c3cn(CC4CN(Cc5ccccc5)CCO4)c4cc(Cl)ccc34)CC2)c2ccc(F)cc21 (stereo not drawn) [Example 177, 1′-({1-[(4-Benzylmorpholin-2-yl)methyl]-6-chloro-1H-indol-3-yl}carbonyl)-5-fluoro-3H-spiro[2-benzofuran-1,4′-piperidin]-3-one] |
| 1.5 nM | O=C(c1cn(Cc2ccncc2)c2cc(Cl)ccc12)N1CCC2(CC1)OCc1ccccc12 [Example 228] |
